The values that follow come from patent US20230374034A1, “NOVEL BICYCLIC COMPOUNDS” (PRISM BIOLAB CO., LTD., priority 2020, published 2023).

This assay deals with NICD (Notch intracellular domain) CSL-bla reporter in HeLa cells. The assay can be described thus: Notch assay (CellSensor T-REx NICD CSL-bla HeLa beta-lactamase reporter; Method 1 / Method 2). Type of assay: cell-based. The conditions noted are these: Homo sapiens, 10 μM compound, Method 2 (40 nL of 1000× compound added to plate with Echo), read-out: inhibiton (%) at 10 μM. The method, boiled down:
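HeLa cells carrying doxycycline-inducible NICD and a CSL-driven beta-lactamase reporter, 10^3 cells/well, were treated with compound plus doxycycline for 16-20 h at 37 °C. CCF4-AM substrate was loaded for 4 h at room temperature; background-subtracted blue (460 nm)/green (530 nm) emission ratio taken per well.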
As to `CCCC[C@@H](C(=O)NCCC(C)C)N1CC2N(C(=O)OCCc3ccc(O)cc3)O[C@H](Cc3ccccc3)C(=O)N2[C@@H](Cc2ccc(O)cc2)C1=O` (stereo partly drawn) [Compound I-109, 4-hydroxyphenethyl (3R,6S)-3-benzyl-6-(4-hydroxybenzyl)-8-((S)-1-(isopentylamino)-1-oxohexan-2-yl)-4,7-dioxohexahydropyrazino[2,1-c][1,2,4]oxadiazine-1(6H)-carboxylate], the inhibition at 10 µM came out at 74%.

With `CC(C)CCCNC(=O)[C@H](Cc1ccc(O)cc1)N1CC2N(C(=O)OCCc3ccc(O)cc3)O[C@H](Cc3ccccc3)C(=O)N2[C@@H](Cc2ccc(O)cc2)C1=O` (stereo partly drawn) [Compound I-110, 4-hydroxyphenethyl (3R,6S)-3-benzyl-6-(4-hydroxybenzyl)-8-((S)-3-(4-hydroxyphenyl)-1-((4-methylpentyl)amino)-1-oxopropan-2-yl)-4,7-dioxohexahydropyrazino[2,1-c][1,2,4]oxadiazine-1(6H)-carboxylate], the inhibition at 10 µM is 75.2%.

On to `CCCCCOC(=O)N1O[C@H](Cc2ccccc2)C(=O)N2C1CN([C@@H](Cc1ccc(O)cc1)C(=O)NCCCC(C)C)C(=O)[C@@H]2Cc1ccc(O)cc1` (stereo partly drawn) [Compound I-111, pentyl (3R,6S)-3-benzyl-6-(4-hydroxybenzyl)-8-((S)-3-(4-hydroxyphenyl)-1-((4-methylpentyl)amino)-1-oxopropan-2-yl)-4,7-dioxohexahydropyrazino[2,1-c][1,2,4]oxadiazine-1(6H)-carboxylate], for which the inhibition at 10 µM was found to be 53.9%.

`CCCC[C@@H](C(=O)NCCCC(C)C)N1CC2N(C(=O)OCCc3ccc(O)cc3)O[C@H](Cc3ccccc3)C(=O)N2[C@@H](Cc2ccc(O)cc2)C1=O` (stereo partly drawn) [Compound I-112, 4-hydroxyphenethyl (3R,6S)-3-benzyl-6-(4-hydroxybenzyl)-8-((S)-1-((4-methylpentyl)amino)-1-oxohexan-2-yl)-4,7-dioxohexahydropyrazino[2,1-c][1,2,4]oxadiazine-1(6H)-carboxylate]: the inhibition at 10 µM was found to be 54.2%.

With `CCCCCOC(=O)N1O[C@H](Cc2ccccc2)C(=O)N2C1CN([C@@H](Cc1ccc(O)cc1)C(=O)NCCc1ccccc1)C(=O)[C@@H]2Cc1ccc(O)cc1` (stereo partly drawn) [Compound I-113, pentyl (3R,6S)-3-benzyl-6-(4-hydroxybenzyl)-8-((S)-3-(4-hydroxyphenyl)-1-oxo-1-(phenethylamino)propan-2-yl)-4,7-dioxohexahydropyrazino[2,1-c][1,2,4]oxadiazine-1(6H)-carboxylate], the inhibition at 10 µM was determined as 62.9%.

Regarding `CC(C)CCOC(=O)N1O[C@H](Cc2ccc(O)cc2)C(=O)N2C1CN([C@@H](CC(C)C)C(=O)NCCc1ccccc1)C(=O)[C@@H]2Cc1ccc(O)cc1` (stereo partly drawn) [Compound I-114, isopentyl (3R,6S)-3,6-bis(4-hydroxybenzyl)-8-((S)-4-methyl-1-oxo-1-(phenethylamino)pentan-2-yl)-4,7-dioxohexahydropyrazino[2,1-c][1,2,4]oxadiazine-1(6H)-carboxylate], the inhibition at 10 µM turned out to be 56.3%.

`CC(C)C[C@@H](C(=O)NCCc1ccccc1)N1CC2N(C(=O)OCCc3ccccc3)O[C@H](Cc3ccc(O)cc3)C(=O)N2[C@@H](Cc2ccc(O)cc2)C1=O` (stereo partly drawn) [Compound I-115, phenethyl (3R,6S)-3,6-bis(4-hydroxybenzyl)-8-((S)-4-methyl-1-oxo-1-(phenethylamino)pentan-2-yl)-4,7-dioxohexahydropyrazino[2,1-c][1,2,4]oxadiazine-1(6H)-carboxylate]: the inhibition at 10 µM was determined as 51.1%.

Regarding `O=C(NCCc1ccccc1)[C@H](Cc1ccccc1)N1CC2N(C(=O)OCCc3ccc(O)cc3)O[C@H](Cc3ccc(O)cc3)C(=O)N2[C@@H](Cc2ccc(O)cc2)C1=O` (stereo partly drawn) [Compound I-116, 4-hydroxyphenethyl (3R,6S)-3,6-bis(4-hydroxybenzyl)-4,7-dioxo-8-((S)-1-oxo-1-(phenethylamino)-3-phenylpropan-2-yl)hexahydropyrazino[2,1-c][1,2,4]oxadiazine-1(6H)-carboxylate], the inhibition at 10 µM was 62.5%.
